In ChEMBL document CHEMBL3124856, “Design, synthesis, and pharmacological evaluation of a novel series of pyridopyrazine-1,6-dione γ-secretase modulators” (J Med Chem, 2014):
Converted amounts (≈) assume the structure as drawn.

Experiments:
[1] = Apparent intrinsic clearance in human hepatocytes; assay type: ADME, cell-based, Hepatocyte; details: read-out: CLH(app)
[2] = Apparent intrinsic clearance in human liver microsomes; assay type: ADME; details: read-out: CLH(app)
[3] = test system: MDR1 (human); assay: Efflux ratio of permeability in MDCK cells expressing human MDR1; assay type: ADME, cell-based, Canis lupus familiaris; details: dog
[4] = target: Gamma-secretase; assay: Modulation of gamma-secretase (unknown origin) expressed in CHO cells overexpressing human wild type APP assessed as reduction of amyloid beta 42 level after 24 hrs by ELISA; assay type: cell-based
[5] = Half life in human hepatocytes; assay type: ADME, cell-based, Hepatocyte
[6] = Passive apparent permeability from apical to basolateral side in RRCK cells; assay type: ADME, cell-based, Canis lupus familiaris, MDCKII-LE; details: dog, MDCK
[7] = Apparent intrinsic clearance in rat liver microsomes; assay type: ADME; details: read-out: CLH(app)
[8] = Volume of distribution at steady state in rat at 1 mg/kg, iv; assay type: ADME, organism-based; parameters: dose 1 mg/kg, route intravenous; details: in vivo, read-out: Vdss
[9] = test system: Cavia porcellus; assay: Antialzheimer activity in po dosed Hartley guinea pig assessed as reduction in brain amyloid beta 42 level measured after 4 hrs post dosing; assay type: functional, organism-based
[10] = test system: Cavia porcellus; assay: Antialzheimer activity in Hartley guinea pig assessed as reduction in brain amyloid beta 42 level at 30 mg/kg, po measured after 4 hrs post dosing relative to control; assay type: functional; parameters: scale not given: the % may be the effect or the level left
[11] = test system: Cavia porcellus; assay: Antialzheimer activity in po dosed Hartley guinea pig assessed as reduction in brain amyloid beta 40 level measured after 4 hrs post dosing; assay type: functional, organism-based
[12] = Drug uptake in Hartley guinea pig cerebrospinal fluid at 10 mg/kg, po after 4 hrs post dosing; assay type: ADME, organism-based, Cavia porcellus; parameters: dose 10 mg/kg, route oral; details: read-out: Drug uptake
[13] = Fraction unbound in Hartley guinea pig brain; assay type: ADME, tissue-based, Cavia porcellus
[14] = target: Cytochrome P450 2D6 (Homo sapiens, UniProt P10635); assay: Inhibition of CYP2D6 (unknown origin); assay type: ADME
Sequence of Cytochrome P450 2D6 (P10635 whole entry): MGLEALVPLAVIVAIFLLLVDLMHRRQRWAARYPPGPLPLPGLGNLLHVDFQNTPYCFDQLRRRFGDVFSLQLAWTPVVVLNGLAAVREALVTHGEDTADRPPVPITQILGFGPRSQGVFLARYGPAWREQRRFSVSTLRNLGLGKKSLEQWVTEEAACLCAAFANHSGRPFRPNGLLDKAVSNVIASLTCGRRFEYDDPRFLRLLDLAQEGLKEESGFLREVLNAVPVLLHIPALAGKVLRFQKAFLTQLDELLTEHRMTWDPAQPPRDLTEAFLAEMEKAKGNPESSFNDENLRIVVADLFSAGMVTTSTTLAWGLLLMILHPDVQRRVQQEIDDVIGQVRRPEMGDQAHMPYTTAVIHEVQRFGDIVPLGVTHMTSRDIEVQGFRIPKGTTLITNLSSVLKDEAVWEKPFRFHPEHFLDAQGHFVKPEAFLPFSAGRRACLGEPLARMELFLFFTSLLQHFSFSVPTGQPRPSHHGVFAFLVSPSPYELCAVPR

[15] = test system: Cavia porcellus; assay: Antialzheimer activity in Hartley guinea pig assessed as increase in brain amyloid beta 38 level at 10 mg/kg, po measured after 4 hrs post dosing relative to control; assay type: functional
[16] = target: T1, Cytochrome P450 1A2 (Homo sapiens, UniProt P05177); assay: Inhibition of CYP1A2 (unknown origin); assay type: ADME
T1 sequence (P05177 whole entry): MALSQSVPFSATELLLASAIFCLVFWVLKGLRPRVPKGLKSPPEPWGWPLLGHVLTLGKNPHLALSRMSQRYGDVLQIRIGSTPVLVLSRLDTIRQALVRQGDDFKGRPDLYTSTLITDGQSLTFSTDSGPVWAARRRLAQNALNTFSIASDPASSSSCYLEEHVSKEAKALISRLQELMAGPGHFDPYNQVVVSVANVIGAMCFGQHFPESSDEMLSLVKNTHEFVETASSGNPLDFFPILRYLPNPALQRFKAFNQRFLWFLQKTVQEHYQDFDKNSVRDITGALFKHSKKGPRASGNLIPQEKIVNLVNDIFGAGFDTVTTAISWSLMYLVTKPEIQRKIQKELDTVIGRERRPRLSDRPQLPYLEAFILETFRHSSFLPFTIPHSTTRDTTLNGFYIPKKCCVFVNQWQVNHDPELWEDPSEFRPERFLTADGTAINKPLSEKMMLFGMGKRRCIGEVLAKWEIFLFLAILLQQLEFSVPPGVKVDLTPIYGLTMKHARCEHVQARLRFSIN

[17] = test system: Cavia porcellus; assay: Antialzheimer activity in Hartley guinea pig assessed as increase in brain amyloid beta 38 level at 90 mg/kg, po measured after 4 hrs post dosing relative to control; assay type: functional
[18] = test system: Cavia porcellus; assay: Antialzheimer activity in Hartley guinea pig assessed as reduction in brain total amyloid beta level at 30 mg/kg, po measured after 4 hrs post dosing relative to control; assay type: functional; parameters: scale not given: the % may be the effect or the level left
[19] = test system: MDR1 (human); assay: Permeability from apical to basolateral side in MDCK cells expressing human MDR; assay type: ADME, cell-based, Canis lupus familiaris; details: dog, read-out: permeability
[20] = Plasma concentration in Hartley guinea pig at 90 mg/kg, po after 4 hrs post dosing; assay type: ADME, organism-based, Cavia porcellus; parameters: dose 90 mg/kg, route oral
[21] = target: Cytochrome P450 2C19 (Homo sapiens, UniProt P33261); assay: Inhibition of CYP2C19 (unknown origin); assay type: ADME
Sequence of Cytochrome P450 2C19 (P33261 whole entry): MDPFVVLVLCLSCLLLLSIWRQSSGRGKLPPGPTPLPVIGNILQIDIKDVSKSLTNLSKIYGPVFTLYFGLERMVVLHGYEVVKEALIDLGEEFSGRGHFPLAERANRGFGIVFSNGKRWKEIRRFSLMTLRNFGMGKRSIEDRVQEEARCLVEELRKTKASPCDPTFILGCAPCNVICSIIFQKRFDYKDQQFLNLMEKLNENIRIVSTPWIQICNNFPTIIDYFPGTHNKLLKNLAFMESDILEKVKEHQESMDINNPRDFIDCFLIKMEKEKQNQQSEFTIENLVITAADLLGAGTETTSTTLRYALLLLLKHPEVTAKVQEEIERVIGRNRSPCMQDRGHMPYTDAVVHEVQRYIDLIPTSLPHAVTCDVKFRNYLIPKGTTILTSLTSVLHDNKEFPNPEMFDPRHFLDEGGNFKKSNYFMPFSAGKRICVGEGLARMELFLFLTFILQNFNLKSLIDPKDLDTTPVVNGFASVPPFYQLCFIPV

[22] = test system: Cavia porcellus; assay: Antialzheimer activity in Hartley guinea pig assessed as reduction in brain amyloid beta 40 level at 30 mg/kg, po measured after 4 hrs post dosing relative to control; assay type: functional; parameters: scale not given: the % may be the effect or the level left
[23] = Ratio of drug uptake in brain to plasma in rat at 5 mg/kg, po after 1 hr; assay type: ADME, organism-based; parameters: dose 5 mg/kg, route oral; details: read-out: BPR
[24] = test system: Cavia porcellus; assay: Antialzheimer activity in Hartley guinea pig assessed as reduction in brain amyloid beta 40 level at 90 mg/kg, po measured after 4 hrs post dosing relative to control; assay type: functional; parameters: scale not given: the % may be the effect or the level left
[25] = Drug uptake in Hartley guinea pig cerebrospinal fluid at 90 mg/kg, po after 4 hrs post dosing; assay type: ADME, organism-based, Cavia porcellus; parameters: dose 90 mg/kg, route oral; details: read-out: Drug uptake
[26] = test system: Cavia porcellus; assay: Antialzheimer activity in Hartley guinea pig assessed as reduction in brain total amyloid beta level at 90 mg/kg, po measured after 4 hrs post dosing relative to control; assay type: functional; parameters: scale not given: the % may be the effect or the level left
[27] = test system: Cavia porcellus; assay: Antialzheimer activity in Hartley guinea pig assessed as reduction in brain amyloid beta 42 level at 10 mg/kg, po measured after 4 hrs post dosing relative to control; assay type: functional; parameters: scale not given: the % may be the effect or the level left
[28] = target: Gamma-secretase; assay: Modulation of gamma secretase in HEK293 NdeltaE cells assessed as inhibition of notch signalling; assay type: cell-based, Homo sapiens
[29] = Fraction unbound in rat plasma; assay type: ADME, cell-free
[30] = target: T2, Cytochrome P450 2C8 (Homo sapiens, UniProt P10632); assay: Inhibition of CYP2C8 (unknown origin); assay type: ADME
T2 sequence (P10632 whole entry): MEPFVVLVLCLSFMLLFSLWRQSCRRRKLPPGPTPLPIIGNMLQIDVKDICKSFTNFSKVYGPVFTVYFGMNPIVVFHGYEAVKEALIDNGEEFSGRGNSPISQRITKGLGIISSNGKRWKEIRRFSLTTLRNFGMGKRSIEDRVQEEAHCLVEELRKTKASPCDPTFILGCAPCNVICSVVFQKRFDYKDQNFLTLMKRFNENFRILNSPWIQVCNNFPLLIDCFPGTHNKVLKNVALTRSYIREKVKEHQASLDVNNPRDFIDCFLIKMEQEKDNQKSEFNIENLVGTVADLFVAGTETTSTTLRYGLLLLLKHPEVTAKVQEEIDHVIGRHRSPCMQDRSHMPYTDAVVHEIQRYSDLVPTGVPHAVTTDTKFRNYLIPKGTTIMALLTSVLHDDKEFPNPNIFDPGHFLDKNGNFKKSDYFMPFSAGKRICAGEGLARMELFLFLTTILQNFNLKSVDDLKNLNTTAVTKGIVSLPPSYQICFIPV

[31] = Lipophilicity, log D of the compound by shake flask method; assay type: physicochemical; details: octanol/water
[32] = Bioavailability in rat at 1 mg/kg, iv and 5 mg/kg, po; assay type: ADME, organism-based; details: in vivo
[33] = target: Cytochrome P450 3A4 (Homo sapiens, UniProt P08684); assay: Inhibition of CYP3A4 (unknown origin); assay type: ADME
Sequence of Cytochrome P450 3A4 (P08684 whole entry): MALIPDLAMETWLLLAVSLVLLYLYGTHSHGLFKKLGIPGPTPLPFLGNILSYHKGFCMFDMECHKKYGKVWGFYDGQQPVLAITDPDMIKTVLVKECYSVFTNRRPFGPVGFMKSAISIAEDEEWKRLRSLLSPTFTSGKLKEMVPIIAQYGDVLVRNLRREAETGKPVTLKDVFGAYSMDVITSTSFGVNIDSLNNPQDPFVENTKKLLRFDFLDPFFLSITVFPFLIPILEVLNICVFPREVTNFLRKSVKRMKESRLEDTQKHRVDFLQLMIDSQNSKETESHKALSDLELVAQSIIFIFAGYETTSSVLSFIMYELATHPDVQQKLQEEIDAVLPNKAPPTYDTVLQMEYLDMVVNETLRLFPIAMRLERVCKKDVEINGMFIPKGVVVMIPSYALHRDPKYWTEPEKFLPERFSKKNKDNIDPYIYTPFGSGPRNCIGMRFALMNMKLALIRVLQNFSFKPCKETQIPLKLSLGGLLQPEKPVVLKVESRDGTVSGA

[34] = test system: Cavia porcellus; assay: Antialzheimer activity in Hartley guinea pig assessed as reduction in brain amyloid beta 40 level at 10 mg/kg, po measured after 4 hrs post dosing relative to control; assay type: functional; parameters: scale not given: the % may be the effect or the level left
[35] = Plasma concentration in Hartley guinea pig at 10 mg/kg, po after 4 hrs post dosing; assay type: ADME, organism-based, Cavia porcellus; parameters: dose 10 mg/kg, route oral
[36] = Plasma concentration in rat at 5 mg/kg, po after 1 hr; assay type: ADME, organism-based; parameters: dose 5 mg/kg, route oral
[37] = Drug uptake in Hartley guinea pig brain at 30 mg/kg, po after 4 hrs post dosing; assay type: ADME, organism-based, Cavia porcellus; parameters: dose 30 mg/kg, route oral; details: read-out: Drug uptake
[38] = Drug uptake in Hartley guinea pig cerebrospinal fluid at 30 mg/kg, po after 4 hrs post dosing; assay type: ADME, organism-based, Cavia porcellus; parameters: dose 30 mg/kg, route oral; details: read-out: Drug uptake
[39] = Drug uptake in Hartley guinea pig brain at 10 mg/kg, po after 4 hrs post dosing; assay type: ADME, organism-based, Cavia porcellus; parameters: dose 10 mg/kg, route oral; details: read-out: Drug uptake
[40] = Fraction unbound in Hartley guinea pig plasma; assay type: ADME, cell-free, Cavia porcellus
[41] = Drug uptake in rat brain at 5 mg/kg, po after 1 hr; assay type: ADME, organism-based; parameters: dose 5 mg/kg, route oral; details: read-out: Drug uptake
[42] = Clearance in rat at 1 mg/kg, iv; assay type: ADME, organism-based; parameters: dose 1 mg/kg, route intravenous; details: in vivo
[43] = test system: Cavia porcellus; assay: Antialzheimer activity in Hartley guinea pig assessed as reduction in brain amyloid beta 42 level at 90 mg/kg, po measured after 4 hrs post dosing relative to control; assay type: functional; parameters: scale not given: the % may be the effect or the level left
[44] = Fraction unbound in rat brain; assay type: ADME, tissue-based
[45] = Half life in rat at 1 mg/kg, iv; assay type: ADME, organism-based; parameters: dose 1 mg/kg, route intravenous; details: in vivo
[46] = Aqueous kinetic solubility of the compound at pH 6.5; assay type: physicochemical; details: read-out: Kinetic_solubility
[47] = Plasma concentration in Hartley guinea pig at 30 mg/kg, po after 4 hrs post dosing; assay type: ADME, organism-based, Cavia porcellus; parameters: dose 30 mg/kg, route oral
[48] = test system: Cavia porcellus; assay: Antialzheimer activity in Hartley guinea pig assessed as reduction in brain total amyloid beta level at 10 mg/kg, po measured after 4 hrs post dosing relative to control; assay type: functional; parameters: scale not given: the % may be the effect or the level left
[49] = test system: Cavia porcellus; assay: Antialzheimer activity in Hartley guinea pig assessed as increase in brain amyloid beta 38 level at 30 mg/kg, po measured after 4 hrs post dosing relative to control; assay type: functional
[50] = target: Cytochrome P450 2C9 (Homo sapiens, UniProt P11712); assay: Inhibition of CYP2C9 (unknown origin); assay type: ADME
Sequence of Cytochrome P450 2C9 (P11712 whole entry): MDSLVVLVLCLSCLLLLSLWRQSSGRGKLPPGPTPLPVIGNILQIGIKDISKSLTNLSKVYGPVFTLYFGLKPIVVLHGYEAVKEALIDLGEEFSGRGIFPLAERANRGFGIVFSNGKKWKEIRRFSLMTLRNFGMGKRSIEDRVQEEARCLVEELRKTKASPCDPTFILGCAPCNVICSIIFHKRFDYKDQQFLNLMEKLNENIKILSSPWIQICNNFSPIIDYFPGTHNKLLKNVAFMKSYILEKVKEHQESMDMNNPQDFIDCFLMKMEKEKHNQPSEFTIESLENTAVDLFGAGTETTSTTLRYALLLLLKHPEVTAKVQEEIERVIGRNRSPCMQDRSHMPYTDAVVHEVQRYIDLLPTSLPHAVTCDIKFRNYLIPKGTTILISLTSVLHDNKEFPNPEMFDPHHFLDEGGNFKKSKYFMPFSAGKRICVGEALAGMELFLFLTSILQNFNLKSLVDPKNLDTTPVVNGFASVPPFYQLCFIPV

[51] = Drug uptake in Hartley guinea pig brain at 90 mg/kg, po after 4 hrs post dosing; assay type: ADME, organism-based, Cavia porcellus; parameters: dose 90 mg/kg, route oral; details: read-out: Drug uptake
[52] = Ratio of unbound drug level in brain to plasma in rat; assay type: ADME

`Cc1cn(-c2ccc3c(c2O)CCN(Cc2cccc(C(F)(F)F)c2)C3=O)cn1` showed a CLint scaled [1] of 90.5 mL/min/kg, a CLint scaled [2] of under 8 mL/min/kg and an efflux ratio [3] of 1.9. The IC50 [4] was 0.4 µM, the half-life [5] was 0.322 h and the Papp A→B [6] was 10.4 ×10⁻⁶ cm/s.

`Cc1cn(-c2ccc3n(c2=O)CCN(Cc2cccc(C(F)(F)F)c2)C3=O)cn1` gave a CLint scaled [2] of under 8 mL/min/kg, an efflux ratio [3] of 1.5 and an IC50 [4] of 1.63 µM. For the same molecule, the CLint scaled [7] was under 25.4 mL/min/kg.

Molecule `COc1c(-n2cnc(C)c2)ccc2c(=O)n(CCc3cccc(Cl)c3)ccc12` has a CLint scaled [2] of 36.1 mL/min/kg, an efflux ratio [3] of 1.2 and an IC50 [4] of 3.4 µM.

In the case of `Cc1cn(-c2ccc3n(c2=O)CCN(CCOc2ccc(Cl)cc2C(F)(F)F)C3=O)cn1`, the Vd [8] is reported as 0.69 L/kg, the Activity [9] is reported as “Dose-dependent effect” and the Activity [10] is reported as 56%. For the same molecule, the Activity [11] was “Dose-dependent effect”, the CLint scaled [2] was under 8 mL/min/kg and the efflux ratio [3] was 1.8. The concentration at 4 h [12] was 12.7 nM, the fraction unbound [13] was 0.008 and the IC50 [14] was over 30 µM. The Activity [15] was 102%, the IC50 [16] was over 30 µM and the Activity [17] was 131%. It also gave an Activity [18] of 92%, a Papp A→B [19] of 5.8 ×10⁻⁶ cm/s and a concentration at 4 h [20] of 7300 nM. The IC50 [4] was 0.101 µM, the IC50 [21] was over 30 µM and the Activity [22] was 69%. It also gave a Kp at 1 h [23] of 0.24, an Activity [24] of 37% and a concentration at 4 h [25] of 239 nM. It also gave an Activity [26] of 82%, an Activity [27] of 81% and an IC50 [28] of over 50 µM. The fraction unbound [29] was 0.0063, the IC50 [30] was 12.3 µM and the logD [31] was 3.32. It also gave a bioavailability [32] of 88%, an IC50 [33] of over 30 µM and an Activity [34] of 88%. It also gave a concentration at 4 h [35] of 367 nM, a concentration at 1 h [36] of 4140 ng/mL and a concentration at 4 h [37] of 9160 nM. The concentration at 4 h [38] was 35.7 nM, the concentration at 4 h [39] was 2910 nM and the Papp A→B [6] was 10.5 ×10⁻⁶ cm/s. The fraction unbound [40] was 0.07, the concentration at 1 h [41] was 1000 ng/mL and the clearance [42] was 1.41 mL/min/kg. The Activity [43] was 32%, the fraction unbound [44] was 0.0084 and the half-life [45] was 6.88 h. For the same molecule, the solubility kinetic [46] was 95.6 µM (≈ 44.6 µg/mL), the concentration at 4 h [47] was 819 nM and the Activity [48] was 100%. It also gave an Activity [49] of 108%, an IC50 [50] of 15.4 µM and a concentration at 4 h [51] of 52400 nM. The CLint scaled [7] was 47.6 mL/min/kg and the Kp uu [52] was 0.32.
